Patent US11548888B2, “KRas G12C inhibitors” (Mirati Therapeutics, Inc., priority 2019, dated 2023)

Molecular target: T1, KRas G12C (Homo sapiens, UniProt P01116, G12C)
T1 construct: NCI-H358 cells (ATCC CRL-5807) express KRas G12C
Assay: Inhibition of KRas G12C-dependent cell growth: Phospho-ERK in NCI-H358 cells
Format: cell-based
Conditions: NCI-H358 cells expressing KRas G12C; Phospho-ERK (Thr202/Tyr204) normalized to GAPDH; 3 hours compound; 4 parameter fit
Method in brief: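 NCI-H358 cells (KRas G12C) exposed to compounds for 3 h, 0.5% DMSO final. Fixed cells immunostained for pERK(Thr202/Tyr204) and GAPDH with infrared secondary antibodies. pERK normalized to GAPDH, expressed as percent of DMSO control; IC50 from 4-parameter dose-response fit.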

T1 sequence (P01116 1-188 isoform P01116-2 G12C): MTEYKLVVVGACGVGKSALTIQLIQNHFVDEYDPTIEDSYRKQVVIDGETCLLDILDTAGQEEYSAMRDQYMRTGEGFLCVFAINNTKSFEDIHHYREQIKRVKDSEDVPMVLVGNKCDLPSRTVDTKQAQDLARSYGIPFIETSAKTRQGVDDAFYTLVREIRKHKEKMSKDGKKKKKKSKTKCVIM

IC50: 456 nM
SMILES: C=CC(=O)N1CC[C@@H]2[C@H]1CN2c1ncnc2c(F)c(-c3cccc4ccc(F)c(CC)c34)ncc12 [Example 304, 1-((1R,5R)-6-(7-(8-ethyl-7-fluoronaphthalen-1-yl)-8-fluoropyrido[4,3-d]pyrimidin-4-yl)-2,6-diazabicyclo[3.2.0]heptan-2-yl)prop-2-en-1-one]
